Consider 10 molecules from PMC6052120, “Bioactive Phenolics of the Genus Artemisia (Asteraceae): HPLC-DAD-ESI-TQ-MS/MS Profile of the Siberian Species and Their Inhibitory Potential Against α-Amylase and α-Glucosidase” (Frontiers in Pharmacology, 2018).

The target in experiment [1] is T1, α-amylase from Aspergillus oryzae (Aspergillus oryzae, UniProt P0C1B3).
T1 construct: purchased Sigma-Aldrich (St. Louis, MO, USA) 10065
Format: biochemical. The conditions noted are these: pure caffeoylquinic acids (CQA); acarbose reference; read-out: Inhibitory activity against enzyme as IC50 α-Amylase. The method, then:
α-Amylase inhibitory activity was assayed according to a previously published spectrophotometric protocol (Olennikov and Kashchenko, [2014]). Sample solution in DMSO (10 μL) at varying concentrations (10, 100, 250, 500, and 1,000 μg/mL), 30 μL of phosphate buffer (pH 5.0) and 10 μL of α-amylase from Aspergillus oryzae (3 U/mL) were incubated for 20 min at . Then 10 μL of 2% starch solution, 40 μL of phosphate buffer (pH 5.0) and 100 μL of the reagent were added and incubated for 30 min at . The reagent was a solution of K2HPO4 (0.8 mM), KH2PO4 (0.4 mM), phenol (220 mM), 4-aminoantipyrine (1.5 μM), glucose oxidase from Aspergillus oryzae (3 U/mL), and peroxidase from horseradish (0.3 U/mL) in deionized water. Absorbance was measured at 510 nm. […] The ability to inhibit α-amylase was calculated using the following equation: […]
(§1) Values are expressed as mean obtained from five independent experiments.

The target in experiment [2] is T2, α-Glucosidase from Saccharomyces cerevisiae (Saccharomyces cerevisiae, UniProt P53341).
T2 construct: purchased Sigma-Aldrich (St. Louis, MO, USA) G5003
The experiment is described as follows: α-glucosidase inhibition assay, spectrophotometric method. The conditions noted are these: pure caffeoylquinic acids (CQA); acarbose reference; read-out: Inhibitory activity against enzyme as IC50 α-Glucosidase. The class given is biochemical. How it is done: The α-glucosidase inhibition assay was performed using spectrophotometric method (Olennikov et al., [2017b]). α-Glucosidase from Saccharomyces cerevisiae was dissolved in phosphate buffer (pH 6.8) containing bovine serum albumin (2 mg/mL) up to 0.5 U/mL concentration. Solution (10 μL) of sample in DMSO–phosphate buffer, pH 6.8 (1:9) at varying concentrations (10, 100, 250, 500, and 1,000 μg/mL) was premixed with 490 μL of phosphate buffer (pH 6.8) and 250 μL 5 mM p-nitrophenyl α-D-glucopyranoside. After preincubating at for 5 min, 250 μL α-glucosidase (0.5 U/mL) was added and incubated at for 15 min. The reaction was terminated by the addition of 2,000 μL Na2CO3 (200 mM). Absorbance was measured at 400 nm. […] The ability to inhibit α-glucosidase was calculated using the following equation: […]
as §1

T2 sequence (P53341 whole entry): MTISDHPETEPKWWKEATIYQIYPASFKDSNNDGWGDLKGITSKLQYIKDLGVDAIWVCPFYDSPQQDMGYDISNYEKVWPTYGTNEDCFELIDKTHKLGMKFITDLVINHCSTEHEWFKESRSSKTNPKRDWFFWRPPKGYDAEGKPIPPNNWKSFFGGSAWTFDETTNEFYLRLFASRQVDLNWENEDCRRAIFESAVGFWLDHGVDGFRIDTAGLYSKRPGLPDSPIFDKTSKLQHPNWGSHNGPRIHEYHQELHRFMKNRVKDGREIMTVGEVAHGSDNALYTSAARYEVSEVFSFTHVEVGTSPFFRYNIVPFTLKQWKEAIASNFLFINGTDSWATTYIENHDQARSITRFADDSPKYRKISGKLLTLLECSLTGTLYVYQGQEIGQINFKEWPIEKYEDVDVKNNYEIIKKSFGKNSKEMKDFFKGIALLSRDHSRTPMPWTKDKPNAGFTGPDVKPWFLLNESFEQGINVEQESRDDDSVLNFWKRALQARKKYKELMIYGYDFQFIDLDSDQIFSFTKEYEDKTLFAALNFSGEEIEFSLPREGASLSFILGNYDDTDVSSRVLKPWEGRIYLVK

In the case of `O=C(/C=C/c1ccc(O)c(O)c1)OC1CC(OC(=O)/C=C/c2ccc(O)c(O)c2)(C(=O)O)CC(O)C1O` (stereo not drawn) [1,3-Di-O-CQA, 1,3-Di-O-caffeoylquinic acid], the IC50 (in general, the midpoint of a concentration-inhibition curve) stood at 101 ± 2.81 µM in experiment [1] and 984 ± 28.5 µM in experiment [2].
In the same order, the values of `O=C(/C=C/c1ccc(O)c(O)c1)O[C@@H]1[C@H](O)C[C@@](O)(C(=O)O)C[C@H]1OC(=O)/C=C/c1ccc(O)c(O)c1` [4,5-Di-O-CQA, 4,5-Di-O-caffeoylquinic acid] are 42.3 ± 1.18 µM and 62.1 ± 1.49 µM.
For `O=C(/C=C/c1ccc(O)c(O)c1)OC1CC(O)(C(=O)O)CC(O)C1OC(=O)/C=C/c1ccc(O)c(O)c1` (stereo not drawn) [3,4-Di-O-CQA, 3,4-Di-O-caffeoylquinic acid], the IC50 was determined as 67.2 ± 2.01 µM in experiment [1] and 210 ± 6.5 µM in experiment [2].
On the same counts, the results for `O=C(/C=C/c1ccc(O)c(O)c1)OC1[C@H](OC(=O)/C=C/c2ccc(O)c(O)c2)CC(O)(C(=O)O)C[C@H]1OC(=O)/C=C/c1ccc(O)c(O)c1` (stereo partly drawn) [3,4,5-Tri-O-CQA] are 40.6 ± 1.05 µM and 61.1 ± 1.77 µM.
In the same order, the values of `O=C(C=Cc1ccc(O)c(O)c1)OC1CC(OC(=O)C=Cc2ccc(O)c(O)c2)(C(=O)O)CC(O)C1O` (stereo not drawn) [1,5-Di-O-CQA, 1,5-Di-O-caffeoylquinic acid] are 77.4 ± 2.24 µM and 754 ± 23.4 µM.
Turning to `O=C(/C=C/c1ccc(O)c(O)c1)O[C@@H]1C[C@](O)(C(=O)O)C[C@@H](O)[C@H]1O` [Compound 3-O-CQA, 3-O-caffeoylquinic acid], in experiment [1], the IC50 turned out to be 170 ± 4.41 µM.
With `O=C(/C=C/c1ccc(O)c(O)c1)O[C@H]1[C@H](O)C[C@](O)(C(=O)O)C[C@H]1O` [Compound 4-O-CQA, 4-O-Caffeoylquinic acid], the values for the IC50 in experiment [1] and in experiment [2] were 110 ± 3.39 µM and 1030 ± 40 µM, respectively.
Regarding `O=C(/C=C/c1ccc(O)c(O)c1)O[C@@H]1C[C@](O)(C(=O)O)C[C@@H](O)[C@H]1O` [Compound 5-O-CQA, 5-O-Caffeoylquinic acid], in experiment [1], the IC50 came to 84.9 ± 2.37 µM.
Take `O=C(/C=C/c1ccc(O)c(O)c1)OC1(C(=O)O)C[C@@H](O)C(O)[C@H](O)C1` (stereo partly drawn) [Compound 1-O-CQA]: the IC50 worked out at 172 ± 5.34 µM in experiment [1] and 1240 ± 42.1 µM in experiment [2].
With `O=C(/C=C/c1ccc(O)c(O)c1)OC1CC(O)(C(=O)O)CC(OC(=O)/C=C/c2ccc(O)c(O)c2)C1O` (stereo not drawn) [3,5-Di-O-CQA, 3,5-Di-O-caffeoylquinic acid], the IC50 came out at 51.3 ± 1.64 µM in experiment [1] and 184 ± 5.34 µM in experiment [2].
